The values that follow come from paper PMC8745710, “Biological Evaluation and Molecular Docking Studies of Novel 1,3,4-Oxadiazole Derivatives of 4,6-Dimethyl-2-sulfanylpyridine-3-carboxamide” (International Journal of Molecular Sciences, 2022).

Like-named read-outs stand apart in the source and are kept apart here.

In data set [1] the test system is LoVo/Dx (drug resistant subline of LoVo). Description: MTT assay, LoVo/Dx. The class given is cell-based. To be noted: Homo sapiens, 48 h incubation, read-out: IC50 [µM] ± SD LoVo/Dx. An excerpt:
(§1) The MTT (3-[4,5-dimethylthiazol-2-yl]-2,5-diphenyl tetrazolium bromide) assay was used to determine the cytotoxicity of tested compounds towards different cell lines: normal human dermal fibroblasts (NHDF), kidney epithelial cells (VERO), fibroblasts from Chinese hamster lung (V79) and four human cancer cells: A549 (pulmonary basal cell alveolar adenocarcinoma), MCF-7 (breast adenocarcinoma), LoVo (colon adenocarcinoma), and its drug resistant subline LoVo/Dx. The cell lines used in this study express COX-1 and COX-2. The LoVo line expressed COX-1, the LoVo/Dx subline express both COX-1 and COX-2 [61].
Each cell line was grown in the culture media recommended by supplier. Before the test they were detached with trypsin/EDTA solution, then to neutralize the effect of Trypsin/EDTA solution, FBS containing medium was used. After centrifugation the cells were stained with 0.4% solution of trypan blue, counted and inspected for viability using microscope. […] The number of cells was 2 × 10^3 cells per well. The tested compounds with different concentrations (5, 10, 20, 50, 100 µM) were dissolved in DMSO and then added to the cells (the final DMSO concentration was 0.1%). The cultures were incubated for another 48 h. After that time the cells were collected to be used in tests.
MTT assay was used to find out how tested compounds influence the metabolic activity of investigated cell lines. The cells were incubated with tested compounds. […] The medium was removed again, and formazan crystals were dissolved in isopropanol.
In general terms: Tetrazolium dyes change colour on reduction, which living cells bring about.

The subject of data set [2] is LoVo cell line. Description: Intracellular ROS level (DCFH-DA), LoVo cells. The class given is cell-based. The conditions noted are these: Homo sapiens, 4 h, compound 100 μM. The procedure: Two cell lines were chosen for investigations: V79 (Chinese hamster lung fibroblasts) and LoVo. V79 normal cells are widely used as the cell line tested in the studies of the oxidative stress. These cells are a living system model to explain the mechanism of ROS effects caused by varied compounds [73].
First, the tested compounds (in concentration of 100 μM) were added to the cell cultures and cells were incubated for 4 h. Then cells were washed and incubated with DCFH-DA (non-fluorescent probe) in dark at 37 °C for 2 h at CO2 [79]. Non-fluorescent, non-polar DCFH-DA (2′7′-dichlorodihydrofluorescein diacetate) at concentration of 25 μM was used as a marker of oxidative stress to determine the intracellular ROS levels. […] In this time, DCFH-DA which penetrated into the cells, was hydrolyzed by esterases to polar, non-fluorescent DCFH (2′7′-dichlorodihydrofluorescein) and then oxidized in the presence of ROS (reactive oxygen species) to fluorescent DCF (2′7′-dichlorofluorescein). DCF was measured using Varioscan LUX microplate reader (Thermo Fisher Scientific, Waltham, MA, USA) at λex = 485 nm and λem = 535 nm.
E is the culture with the tested compound and E0 is the negative control without the compound. The routine statistical methods: two-way analysis of variance ANOVA as well as Tukey’s post-hoc test were used. It allowed us to determine the statistical significance of results, where p < 0.05 was set as significant. The statistical indicators were estimated using Statistica 13.3 software.

In data set [3] the target is T1, COX-2 (Homo sapiens, UniProt P35354).
T1 construct: purchased Cayman Chemical Company, Ann Arbor, MI, USA
T1 sequence (P35354 18-604): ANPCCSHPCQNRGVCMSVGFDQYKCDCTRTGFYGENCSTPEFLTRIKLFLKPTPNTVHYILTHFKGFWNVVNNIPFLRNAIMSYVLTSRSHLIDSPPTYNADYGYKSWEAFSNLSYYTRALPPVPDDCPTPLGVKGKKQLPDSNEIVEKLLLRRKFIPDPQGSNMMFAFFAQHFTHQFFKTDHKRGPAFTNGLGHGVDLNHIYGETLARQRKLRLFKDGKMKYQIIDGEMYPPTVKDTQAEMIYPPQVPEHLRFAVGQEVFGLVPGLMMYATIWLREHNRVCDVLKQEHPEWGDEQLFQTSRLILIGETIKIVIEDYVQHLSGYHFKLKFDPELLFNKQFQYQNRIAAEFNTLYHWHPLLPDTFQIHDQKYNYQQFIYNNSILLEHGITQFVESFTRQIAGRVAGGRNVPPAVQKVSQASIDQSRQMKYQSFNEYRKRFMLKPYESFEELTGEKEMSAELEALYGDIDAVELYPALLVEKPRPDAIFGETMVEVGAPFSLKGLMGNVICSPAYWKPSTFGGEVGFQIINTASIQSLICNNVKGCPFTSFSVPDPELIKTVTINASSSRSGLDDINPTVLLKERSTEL
In words: COX colorimetric inhibitor screening assay, COX-2. To be noted: for IC50: read-out: IC50 [µM] ± SD COX-2; for COX-2/COX-1 Selectivity Ratio: ratio of IC50 COX-2 / IC50 COX-1. Format: biochemical. From the text: The compounds were studied for their potencies to inhibit COX-1 and COX-2 enzymes by the colorimetric inhibitor screening assay.
A COX Colorimetric Inhibitor Screening Assay Kit, produced by Cayman Chemical Company, Ann Arbor, MI, USA, was used. It used the colorimetric monitoring of oxidized form of TMPD (N,N,N′,N′-tetramethyl-p-phenylenediamine) which was produced during reduction of prostaglandin G2 (PGG2) to PGH2. […] Reagents used it this assay were: COX-1 and COX-2 enzymes, Tris-HCl buffer, solutions of heme in DMSO and TMPD, arachidonic acid, KOH. To be sure that 100% enzymatic activity was achieved each sample was measured 3 times. The probes were measured after two minutes of incubation with tested compounds in the comparison to the initial activity of enzyme.

The test system of data set [4] is NHDF (normal human dermal fibroblasts). In words: MTT assay, NHDF. Format: cell-based. To be noted: 48 h incubation, read-out: IC50 [µM] ± SD NHDF.
Text: as §1
Each cell line was grown in the culture media recommended by supplier. Before the test they were detached with trypsin/EDTA solution, then to neutralize the effect of Trypsin/EDTA solution, FBS containing medium was used. After centrifugation the cells were stained with 0.4% solution of trypan blue, counted and inspected for viability using microscope. In the end, cells were inserted into 96-well culture plates and incubated in CO2 incubator (37 °C, 24 h). The number of cells was 2 × 10^3 cells per well. The tested compounds with different concentrations (5, 10, 20, 50, 100 µM) were dissolved in DMSO and then added to the cells (the final DMSO concentration was 0.1%). The cultures were incubated for another 48 h. After that time the cells were collected to be used in tests.
MTT assay was used to find out how tested compounds influence the metabolic activity of investigated cell lines. The cells were incubated with tested compounds. After removing of supernatant, 1 mg/mL of MTT solution in MEM was added to the plate (to each well) and then the plates were incubated at 37 °C for 2 h. The medium was removed again, and formazan crystals were dissolved in isopropanol. A Varioscan LUX microplate reader (Thermo Fisher Scientific, Waltham, MA, USA) was used to measure absorbance at 570 nm.

Setting [5] is: with H2O2 (100 μM, 30 min), n = 5, read-out: ROS scavenging activity, Mean E/E0 ± SD, with H2O2.
Where [6] appears, read: without H2O2, n = 5, read-out: ROS scavenging activity, Mean E/E0 ± SD, without H2O2.
[7] abbreviates: after 2 min of incubation, n = 5.

With `CSc1ccc(/C=N\NC(=O)Cn2nc(CNC(=O)c3c(C)cc(C)nc3S)oc2=S)cc1` [Compound 8, 4,6-Dimethyl-N-{[4-(2-(2-(4-methysulfanylbenzylidene)hydrazinyl)-2-oxoethyl)-5-sulfanylidene-4,5-dihydro-1,3,4-oxadiazole-2-yl]methyl}-2-sulfanylpyridine-3-carboxamide], the melting point lay in the range of 235 to 238 °C. The IC50 in data set [1] was found to be 21 ± 5.92 µM. Besides, the activity at 100 µM in data set [2] (setting [5]) was determined as 80 ± 22%. The activity at 100 µM in data set [2] (setting [6]) turned out to be 65 ± 20%. Further, the “IC50 [µM] ± SD COX-2” value in data set [3] (setting [7]) is “showed only COX-1 inhibitory activity”. For the same compound, in data set [4], the IC50 was 58.7 ± 1.94 µM.

In turn, `Cc1cc(C)c(C(=O)NCc2nn(CC(=O)NN=Cc3cccc(Cl)c3)c(=S)o2)c(S)n1` [Compound 12, 4,6-Dimethyl-N-{[4-(2-(2-(3-chlorobenzylidene)hydrazinyl)-2-oxoethyl)-5-sulfanylidene-4,5-dihydro-1,3,4-oxadiazole-2-yl]methyl}-2-sulfanylpyridine-3-carboxamide] came in with a melting point of 273 to 275 °C. Besides, the IC50 in data set [1] was 22.6 ± 8.19 µM. The activity at 100 µM in data set [2] (setting [5]) worked out at 79 ± 16%. Also, the activity at 100 µM in data set [2] (setting [6]) worked out at 91 ± 43%. The IC50 in data set [3] (setting [7]) was 90.7 ± 19.6 µM. Moreover, the “COX-2/COX-1 Selectivity Ratio” value in data set [3] was found to be 1.36. Also, the IC50 in data set [4] is 58.7 ± 2.21 µM.

The compound `Cc1cc(C)c(C(=O)NCc2nn(CC(=O)NN=Cc3ccc(Cl)cc3)c(=S)o2)c(S)n1` [Compound 10, 4,6-Dimethyl-N-{[4-(2-(2-(4-chlorobenzylidene)hydrazinyl)-2-oxoethyl)-5-sulfanylidene-4,5-dihydro-1,3,4-oxadiazole-2-yl]methyl}-2-sulfanylpyridine-3-carboxamide] yielded a melting point of 278 to 280 °C. Besides, the IC50 in data set [1] was 22.3 ± 2.1 µM. Besides, the activity at 100 µM in data set [2] (setting [5]) was determined as 91 ± 14%. The activity at 100 µM in data set [2] (setting [6]) worked out at 85 ± 27%. For the same compound, the IC50 in data set [3] (setting [7]) is 128 ± 1.87 µM. Besides, the IC50 in data set [4] was found to be 59.9 ± 2.04 µM.

Consider `Cc1cc(C)c(C(=O)NCc2nn(CC(=O)NN=Cc3ccccc3)c(=S)o2)c(S)n1` [Compound 5, 4,6-Dimethyl-N-{[4-(2-(2-benzylidenehydrazinyl)-2-oxoethyl)-5-sulfanylidene-4,5-dihydro-1,3,4-oxadiazol-2-yl]methyl}-2-sulfanylpyridine-3-carboxamide], for which the melting point lay within 236 to 239 °C. The IC50 in data set [1] stood at 5.69 ± 1.03 µM. Also, the activity at 100 µM in data set [2] (setting [5]) worked out at 87 ± 21%. Also, in data set [2] (setting [6]), the activity at 100 µM was determined as 72 ± 21%. For the same compound, the IC50 in data set [3] (setting [7]) was 187 ± 15.3 µM. Further, the “COX-2/COX-1 Selectivity Ratio” value in data set [3] is recorded as 2.53. For the same compound, the IC50 in data set [4] turned out to be 59 ± 1.49 µM.

`Cc1ccc(C=NNC(=O)Cn2nc(CNC(=O)c3c(C)cc(C)nc3S)oc2=S)cc1` [Compound 7, 4,6-Dimethyl-N-{[4-(2-(2-(4-methylbenzylidene)hydrazinyl)-2-oxoethyl)-5-sulfanylidene-4,5-dihydro-1,3,4-oxadiazole-2-yl]methyl}-2-sulfanylpyridine-3-carboxamide] registered a melting point of 215 to 220 °C. Also, the IC50 in data set [1] stood at 7.89 ± 1.78 µM. For the same compound, the activity at 100 µM in data set [2] (setting [5]) turned out to be 95 ± 27%. For the same compound, the activity at 100 µM in data set [2] (setting [6]) amounted to 107 ± 38%. Also, the IC50 in data set [3] (setting [7]) stood at 184 ± 18.8 µM. For the same compound, the “COX-2/COX-1 Selectivity Ratio” value in data set [3] was 1.25. In addition, the IC50 in data set [4] was determined as 58.2 ± 2 µM.

For the compound `Cc1cc(C)c(C(=O)NCc2nn(CC(=O)NN=Cc3ccccc3Br)c(=S)o2)c(S)n1` [Compound 13, 4,6-Dimethyl-N-{[4-(2-(2-(2-bromobenzylidene)hydrazinyl)-2-oxoethyl)-5-sulfanylidene-4,5-dihydro-1,3,4-oxadiazole-2-yl]methyl}-2-sulfanylpyridine-3-carboxamide], the melting point was in the range of 285 to 288 °C. For the same compound, in data set [1], the IC50 stood at 9.4 ± 5.97 µM. Also, in data set [2] (setting [5]), the activity at 100 µM was 69 ± 10%. Moreover, the activity at 100 µM in data set [2] (setting [6]) was 70 ± 30%. For the same compound, in data set [3] (setting [7]), the IC50 was found to be 73.2 ± 5.66 µM. Also, in data set [4], the IC50 came to 59.3 ± 3.43 µM.

On to `Cc1cc(C)c(C(=O)NCc2nn(CC(=O)NN=Cc3ccc(F)cc3)c(=S)o2)c(S)n1` [Compound 6, 4,6-Dimethyl-N-{[4-(2-(2-(4-fluorobenzylidene)hydrazinyl)-2-oxoethyl)-5-sulfanylidene-4,5-dihydro-1,3,4-oxadiazole-2-yl]methyl}-2-sulfanylpyridine-3-carboxamide], for which the melting point lay in the range of 295 to 298 °C. In data set [1], the IC50 turned out to be 7.07 ± 2.48 µM. The activity at 100 µM in data set [2] (setting [5]) turned out to be 88 ± 4%. The activity at 100 µM in data set [2] (setting [6]) was found to be 74 ± 22%. The IC50 in data set [3] (setting [7]) worked out at 174 ± 5.84 µM. For the same compound, the “COX-2/COX-1 Selectivity Ratio” value in data set [3] was found to be 1.20. The IC50 in data set [4] worked out at 58.2 ± 0.92 µM.

In turn, `Cc1cc(C)c(C(=O)NCc2nn(CC(=O)NN=Cc3ccc(C(F)(F)F)cc3)c(=S)o2)c(S)n1` [Compound 11, 4,6-Dimethyl-N-{[4-(2-(2-(4-trifluoromethylbenzylidene)hydrazinyl)-2-oxoethyl)-5-sulfanylidene-4,5-dihydro-1,3,4-oxadiazole-2-yl]methyl}-2-sulfanylpyridine-3-carboxamide] returned a melting point of 253 to 255 °C. Moreover, in data set [1], the IC50 is 17.5 ± 8.73 µM. The activity at 100 µM in data set [2] (setting [5]) came out at 84 ± 17%. For the same compound, in data set [2] (setting [6]), the activity at 100 µM was 124 ± 65%. For the same compound, the IC50 in data set [3] (setting [7]) is 170 ± 19.1 µM. Further, in data set [3], the “COX-2/COX-1 Selectivity Ratio” value turned out to be 1.97. Further, the IC50 in data set [4] came out at 59 ± 3.62 µM.

One may read the melting point as the temperature, or range, at which the solid turns liquid.
